Data as given in patent publication US10463713B2, “Use of AAC-11 inhibitors for the treatment of viral infection” (INSERM (Institut National de la Sante et de la Recherche …, priority 2016, dated 2019).

What was measured:
[1] = tested on: cancer cells; assay: Annexin-V/PI cell death of cancer cell lines under low-serum stress; type: cell-based; conditions: 24 hours, increasing concentrations (FIG. 1)
Experimental: (§1) The indicated cell lines or blood cells from healthy donors were treated for 24 hours in a 37° C. incubator (5% CO2) with increasing concentrations of the Antp-AAC-11-LZ (377-399) before Annexin-V and PI staining. The percentages refer to Annexin-V-positive or Annexin-V-positive/PI-positive staining.
(§2) Detection of phosphatidylserine on apoptotic cells was performed by using an AnnexinV/propidium iodide (PI) detection kit (Beckman Coulter, Immunotech, Marseille, France) according to the manufacturer. Briefly, 5×10^5 cells were incubated in the dark at 4° C. with Annexin V-fluorescein isothiocyanate (FITC) and 2.5 μg/mL PI in phosphate buffer for 10 minutes before 18 000 ungated events were collected within the hour by flow cytometry (FACScalibur, BD Biosciences, Mansfield, Mass.) and analyzed with the ProCellQuest software provided by the manufacturer. In HIV-1 infection assays (see below), cell viability was determined with the help of LIVE/DEAD® Fixable Aqua stain kit as recommended by the manufacturer (Molecular Probes, Life Technologies, Saint Aubin, France).

[2] = tested on: normal cells (blood cells from healthy donors); assay: Annexin-V/PI cell death of normal cells / blood cells from healthy donors under low-serum stress; type: cell-based; conditions: 24 hours, increasing concentrations, blood cells from healthy donors (FIG. 1)
Experimental: as §1, §2

[3] = tested on: HIV-1 BaL; type: cell-based; conditions: three days; for HIV-1 replication (p24 antigen in supernatants) / elimination of HIV infected CD4+ T cells: 6 μM peptide, HIV-1 BaL, CD4+ T cells (FIG. 3); for HIV-1 replication (p24 antigen in supernatants) / elimination of HIV infected human CD4+ T cells: increasing amounts of peptide, HIV-1BaL, human CD4+ T cells (FIG. 4A upper panel)
[4] = tested on: HIV-1BX08; type: cell-based; conditions: increasing amounts of peptide, three days, primary strain HIV-1BX08, human CD4+ T cells (FIG. 4A bottom panel)
[5] = tested on: SIVmac251; type: cell-based, SIVmac; conditions: increasing amounts of peptide, three days, macaque CD4+ T cells (FIG. 4B)
[6] = tested on: VSV-G HIV-1-particles; type: cell-based
[7] = tested on: HIV-1 BaL; type: cell-based; conditions: 4 or 8 μM; added 10 minutes before infection and washed after two hours, or added two hours after infection and kept three days (FIG. 6)

Row | Substance | cell death (Annexin-V-positive or Annexin-V-positive/PI-positive staining) of cancer cells [1] | cell death (Annexin-V-positive or Annexin-V-positive/PI-positive staining) of normal cells [2] | HIV-1 replication (p24 antigen in supernatants) / elimination of HIV infected CD4+ T cells [3] | HIV-1 replication (p24 antigen in supernatants) / elimination of HIV infected human CD4+ T cells [3] | HIV-1 replication (p24 antigen in supernatants) / elimination of HIV infected human CD4+ T cells [4] | SIVmac251 replication (p27 antigen in supernatants) / elimination of SIVmac infected macaque CD4+ T cells [5] | percentage of GFP+ (infected) cells and of viable cells / elimination of HIV infected CD4+ T cells [6] | HIV-1 infection of human macrophages [7]
1 | Ac-RQIKIWFKKQNRRMKWKKLQYFARGLQVYIRQLRLALQGKT-NH2 [RT39] | induced cancer cells | but not normal cells | induce the selective elimination | induce the selective elimination | induce the selective elimination | induce the selective elimination | induce the selective elimination | 
2 | RQIKIWFKKQNRRMKWKKAKLNAEKLKDFKIRLQYFARGLQVYIRQLRLALQGKT (Synthetic Antp-AAC-11-LZ (363-399) (RT53)) |  |  | induce the selective elimination | induce the selective elimination | induce the selective elimination | induce the selective elimination | induce the selective elimination | block HIV-1 infection in human macrophages
3 | RQIKIWFKKQNRRMKWKKYFARGLQVYIRQL (Synthetic Antp-AAC-11-LZ (379-391) (RL29)) |  |  | induce the selective elimination |  |  |  |  | 
